Measured values reported in US20210176992A1, “FU[…] COMBINATION OF A CL[…] AND AN AZOLE” (Bayer Aktiengesellschaft, priority 2018, published 2021).
“And” between values parts separate entries of the source, which are not always exact repeats. Equal entries are not always repeated.

Key:
DON content = assay: Field trial winter wheat 2017, deoxynivalenol quantification by LC-MS/MS; format: in vivo; settings: Laacherhof 2017, application at growth stage 63-65, J1446 500 g/ha, prothioconazole 125 g a.i./ha, control 3583 ppb DON content
Method: (§1) Impact of Different Compounds on Fusarium Infestation and the DON Content; Field Trial Winter Wheat 2017 at the Laacherhof, Germany
(§2) Application was done on Jun. 1, 2017 at growth stage 63-65. Evaluation was done Jun. 20, 2017. Quantification of deoxynivalenol was performed by LC-MS/MS analysis using a Waters UPLC coupled to a Sciex API4000 mass spectrometer. The column used was a Waters Acquity HSS T3 (2.1×50 mm, 1.8 μm) and solvents were 2 mM ammonium acetate/1% acedic acid and methanol/2 mM ammonium acetate/1% acetic acid used in a 4 min gradient. The mass spectrometer was operated in negative ionization mode (MRM transitions: deoxynivalenol 355>265, 3-acetyl-deoxynivalenol 387>307, respectively). Quantification was performed by external calibration using reference compounds.
(§3) On the other hand, whereas infestation was lower upon application of C. rosea J1446 alone (45 vs. 63%), DON reduction after application of the combination of prothioconazole and C. rosea J1446 was even bigger (60 vs. 30%).

Fusarium = assay: Field trial winter wheat 2017, visual assessment of Fusarium control; format: in vivo; settings: Laacherhof 2017, application at growth stage 63-65, evaluation Jun. 20, 2017, J1446 500 g/ha, prothioconazole 125 g a.i./ha, control 38% infestation
Method: as §1, §2, §3

OC(Cc1ccccc1Cl)(Cn1nc[nH]c1=S)C1(Cl)CC1 (stereo not drawn) [Prothioconazole, prothioconazole]
DON Reduction (DON content): 41%
DON Reduction (DON content; listed as prothioconazole): 40% and 41%
Visual Assessment Fusarium-Control (Fusarium): 66%
